The species named for test [1] is Rattus norvegicus. As to the kind of experiment: (§1) Inhibitory activity against Adenylyl cyclase in rat cortical membranes in the presence of 2''-Me-CCPA at concentration 30 nM. Format: functional.
For test [2], the species on record is Rattus norvegicus. Description: Maximal % inhibition of adenylyl cyclase activity in rat cortical membranes at a concentration of 10 uM. Format: functional.
Test [3] is filed under the species Rattus norvegicus. Description: (§2) Inhibitory activity against Adenylyl cyclase in rat cortical membranes in the presence of 2''-Me-CPA at concentration 50 nM. Format: functional.
For test [4], the species on record is Rattus norvegicus. Described as §2. Format: functional. The source holds these as a separate data set.
For test [5], the species on record is Rattus norvegicus. Described as §1. In kind it is functional. This is another data set of the same source.
Test [6] is filed under the species Rattus norvegicus. Description: (§3) Inhibitory activity against Adenylyl cyclase in rat cortical membranes in the presence of 2''-IB-Ado at concentration 30 nM. In kind it is functional.
For test [7], the species on record is Rattus norvegicus. The test is described as §3. In kind it is functional. The source holds these as a separate data set.
The species entered for test [8] is Rattus norvegicus. Description: The compound was tested for the concentration to inhibit 50% of Adenylyl cyclase activity in rat cortical membranes. Format: functional.
For another test, the target named is T1, Adenosine receptor A3 (Rattus norvegicus, UniProt P28647).
T1 sequence (P28647 whole entry): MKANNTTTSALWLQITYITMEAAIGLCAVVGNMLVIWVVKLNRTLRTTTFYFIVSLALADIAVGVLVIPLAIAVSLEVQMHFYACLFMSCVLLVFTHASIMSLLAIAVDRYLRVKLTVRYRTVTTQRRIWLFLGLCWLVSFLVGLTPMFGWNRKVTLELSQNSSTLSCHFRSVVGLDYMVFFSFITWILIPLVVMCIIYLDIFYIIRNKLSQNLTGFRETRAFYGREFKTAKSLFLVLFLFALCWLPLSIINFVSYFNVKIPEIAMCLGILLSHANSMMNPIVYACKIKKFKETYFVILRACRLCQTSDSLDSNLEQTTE
As to the kind of experiment: Inhibitory activity against Adenosine A3 receptor by inhibiting specific [3H](R)-PIA binding to rat testis membranes. On the set-up: species or system Membrane.

Test [9] concerns the target T2, Adenosine receptor A3 (Rattus norvegicus) (UniProt P28647).
T2 sequence (whole entry): T1 sequence (P28647 whole entry)
As to the kind of experiment: Inhibitory activity against Adenosine A3 receptor by inhibition of [3H](R)-PIA binding to rat testis membranes. Format: cell membranes. The note with it: Membrane, concentration not given here.

The target of the next test is T3, Adenosine receptor A1 (Bos taurus, UniProt P28190).
T3 sequence (P28190 whole entry): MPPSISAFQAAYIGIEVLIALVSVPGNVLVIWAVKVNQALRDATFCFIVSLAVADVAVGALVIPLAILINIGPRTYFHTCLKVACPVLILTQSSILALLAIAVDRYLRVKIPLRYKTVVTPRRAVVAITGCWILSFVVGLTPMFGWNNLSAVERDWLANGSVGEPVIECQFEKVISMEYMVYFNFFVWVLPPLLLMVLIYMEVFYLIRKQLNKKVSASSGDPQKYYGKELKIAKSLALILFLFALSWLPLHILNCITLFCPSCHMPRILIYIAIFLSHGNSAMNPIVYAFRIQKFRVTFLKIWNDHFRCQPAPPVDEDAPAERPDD

Another test concerns the target Adenosine receptor A2a (Homo sapiens, UniProt P29274).
Test [10] is described as follows: Inhibitory selectivity at Adenosine A3 receptor compared to Adenosine 2A receptor.
Test [11] is described as follows: Inhibitory selectivity at Adenosine 2A receptor compared to Adenosine 1 receptor.
Test [12] is described as follows: Inhibitory selectivity at Adenosine A3 receptor compared to Adenosine 1 receptor.

This is an account of results in ChEMBL document CHEMBL1131221, “2'-C-Methyl analogues of selective adenosine receptor agonists: synthesis and binding studies” (J Med Chem, 1998).

Each structure is given as a SMILES string. pIC50, pKi: −log10 of the molar value.

Sequence of Adenosine receptor A2a (P29274 whole entry): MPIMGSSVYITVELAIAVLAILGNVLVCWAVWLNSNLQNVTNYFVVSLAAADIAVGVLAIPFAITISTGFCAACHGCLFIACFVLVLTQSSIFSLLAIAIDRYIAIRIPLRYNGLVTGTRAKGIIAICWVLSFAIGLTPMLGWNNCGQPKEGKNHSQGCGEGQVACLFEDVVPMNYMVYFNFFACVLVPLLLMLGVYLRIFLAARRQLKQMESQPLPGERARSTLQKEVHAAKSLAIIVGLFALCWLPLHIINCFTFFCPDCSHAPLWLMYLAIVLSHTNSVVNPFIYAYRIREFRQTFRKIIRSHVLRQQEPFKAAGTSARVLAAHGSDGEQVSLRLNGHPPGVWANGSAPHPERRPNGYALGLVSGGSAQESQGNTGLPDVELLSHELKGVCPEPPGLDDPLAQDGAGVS
Description for Adenosine receptor A1: Inhibitory activity at Adenosine A1 receptor by inhibition of [3H]CHA binding to bovine brain cortical membranes.
Description for Adenosine receptor A2a: Inhibitory activity at Adenosine A2A receptor by inhibition of [3H]-CGS- 21680 binding to bovine striatal membranes.

Broadly, the pIC50 is the IC50 on a negative log10 scale, so that one unit is a factor of ten. As to `OC[C@H]1O[C@@H](n2cnc3c(NC4CCCCC4)ncnc32)[C@H](O)[C@@H]1O`, the Max inhibition in the test filed under Rattus norvegicus [1] stood at 16.1%; in the test listed under Rattus norvegicus [2], 16.2%; in the test filed under Rattus norvegicus [4], 16.2%; in the test listed under Rattus norvegicus [7], 16%. For the same compound, the pIC50 in the test filed under Rattus norvegicus [3] was 8.85; in the test filed under Rattus norvegicus [5] it was 8.80; in the test filed under Rattus norvegicus [6], 8.82; in the test filed under Rattus norvegicus [8] it was 8.85.

What is called pKi is −log10 of the Ki, conventionally taken in molar units. Low values mean a large Ki, high ones a small Ki. In turn, `C[C@H](Cc1ccccc1)Nc1ncnc2c1ncn2[C@@H]1O[C@H](CO)[C@@H](O)[C@H]1O` [(R)-PIA] showed a pKi at Adenosine receptor A3 of 7.28.

For orientation: inhibition means the share of the control response that was lost under treatment. Regarding `C[C@]1(O)C(n2cnc3c(N)nc(Cl)nc32)O[C@H](CO)[C@H]1O` (stereo partly drawn), the inhibition in test [9] was 10%. Moreover, the pKi on Adenosine receptor A1 is 6.27.

As to `OC[C@H]1O[C@@H](n2cnc3c(NCc4cccc(I)c4)ncnc32)[C@H](O)[C@@H]1O`, the pKi at Adenosine receptor A1 was 7.73.

For `C[C@@]1(O)[C@H](O)[C@@H](CO)O[C@H]1n1cnc2c(NC3CCCC3)ncnc21`, the pKi was 8.02 on Adenosine receptor A1 and 6.68 on Adenosine receptor A3. In the test filed under Rattus norvegicus [2], the Max inhibition worked out at 11%. Besides, the pIC50 in the test filed under Rattus norvegicus [8] is 8.64.

In the case of `C[C@@]1(O)[C@H](O)[C@@H](CO)O[C@H]1n1cnc2c(NC3CCCC3)nc(Cl)nc21`, the pKi at Adenosine receptor A1 is 8.74; at Adenosine receptor A3, 5.30. For the same compound, the Max inhibition in the test listed under Rattus norvegicus [2] amounted to 15.1%. In the test listed under Rattus norvegicus [8], this compound had a pIC50 of 7.88.

`C[C@@]1(O)[C@H](O)[C@@H](CO)O[C@H]1n1cnc2c(N)ncnc21` returned an inhibition in test [9] of 0%.

For `OC[C@H]1O[C@@H](n2cnc3c(NC4CCCC4)nc(Cl)nc32)[C@H](O)[C@@H]1O`, the values for the pKi on Adenosine receptor A1 and at Adenosine receptor A2a were 9.46 and 6.24, respectively.

On to `CNC(=O)[C@H]1O[C@@H](n2cnc3c(NCc4cccc(I)c4)ncnc32)[C@H](O)[C@@H]1O` [IB-MECA], for which the pKi on Adenosine receptor A1 was 7.48.

As to `C[C@@]1(O)[C@@H](CO)O[C@@H](n2cnc3c(N)ncnc32)[C@@H]1O`, the inhibition in test [9] was 8%. Besides, the pKi on Adenosine receptor A1 was 4.31.

`Nc1nc(Cl)nc2c1ncn2[C@@H]1O[C@H](CO)[C@@H](O)[C@H]1O`: the Selectivity stood at 26.6 in [10], 5.9 in test [11] and 158 in test [12]. Moreover, the pKi at Adenosine receptor A1 was 7.69; on Adenosine receptor A3, 5.49; at Adenosine receptor A2a it was 6.92.

Consider `CNC(=O)[C@H]1OC(n2cnc3c(NCc4cccc(I)c4)ncnc32)[C@](C)(O)[C@@H]1O` (stereo partly drawn), for which the Selectivity in test [10] was found to be 0.2; in [11], 6; in [12], 1.2. The pKi is 6.60 on Adenosine receptor A1, 6.49 on Adenosine receptor A3 and 5.81 on Adenosine receptor A2a.

In the case of `C[C@H](Cc1ccccc1)Nc1ncnc2c1ncn2[C@@H]1O[C@H](CO)[C@@H](O)[C@@]1(C)O`, the negative logarithm of the Ki (pKi) on Adenosine receptor A1 was 8.33; at Adenosine receptor A3, 5.97; on Adenosine receptor A2a, 5.13. In addition, in the test filed under Rattus norvegicus [2], the Max inhibition was determined as 13.7%. In the test filed under Rattus norvegicus [8], this compound gave a pIC50 of 8.80.

`C[C@@]1(O)[C@H](O)[C@@H](CO)O[C@H]1n1cnc2c(NCc3cccc(I)c3)ncnc21` gave a pKi on Adenosine receptor A1 of 7.70. In the test listed under Rattus norvegicus [2], this compound showed a Max inhibition of 10.9%. The compound also gave a pIC50 in the test filed under Rattus norvegicus [8] of 8.80.

Regarding `CCNC(=O)[C@H]1O[C@@H](n2cnc3c(N)ncnc32)[C@](C)(O)[C@@H]1O`, the Selectivity in [10] was 2.5; in test [11], 1.5; in test [12] it was 3.8. For the same compound, the pKi was 6.85 on Adenosine receptor A1, 6.26 at Adenosine receptor A3 and 6.66 at Adenosine receptor A2a.

`C[C@@H](Cc1ccccc1)Nc1ncnc2c1ncn2[C@@H]1O[C@H](CO)[C@@H](O)[C@H]1O` [(S)-PIA] gave a pKi at Adenosine receptor A3 of 6.62.

Compound `OC[C@H]1O[C@@H](n2cnc3c(NC4CCCC4)ncnc32)[C@H](O)[C@@H]1O` [N6-CYCLOPENTYLADENOSINE] registered a Max inhibition in the test filed under Rattus norvegicus [2] of 15.5%. The same compound showed a negative-log IC50 (pIC50) in the test listed under Rattus norvegicus [8] of 7.94. The compound also had a negative-log Ki (pKi) on Adenosine receptor A2a of 6.41.

As to `C[C@@H](Cc1ccccc1)Nc1ncnc2c1ncn2C1O[C@H](CO)[C@@H](O)[C@@]1(C)O` (stereo partly drawn), the pKi was 7.30 on Adenosine receptor A1 and 5.00 at Adenosine receptor A3.
